Data on 1 compound can be found in PMC5118696, “Identification of inhibitors that dually target the new permeability pathway and dihydroorotate dehydrogenase in the blood stage of Plasmodium falciparum” (Scientific Reports, 2016).

Test [1] has as its target T1, PfDHODH (dihydroorotate dehydrogenase) (Plasmodium falciparum, UniProt Q08210).
T1 construct: gene PFF0160c; amino acids 169–569
Nature of the test: DCIP reduction enzyme assay with recombinant PfDHODH; IC50 extrapolated, inhibition did not reach […]. In kind it is biochemical.

Test [2] relates to Hyp1-NLuc Plasmodium falciparum-infected erythrocytes (new permeability pathway, NPP). Nature of the test: microbe, parasite or virus in culture. As to conditions: Erythrocyte, 0.33 h, read-out: Mean RLU at 28 min (As % of DMSO control).
Test [3] shares this test system. As to the kind of experiment: microbe, parasite or virus in culture. As to conditions: Erythrocyte, 0.33 h, read-out: % of control remaining.

Read-outs that look alike come from different tables or passages of the source.

T1 sequence (Q08210 169-569): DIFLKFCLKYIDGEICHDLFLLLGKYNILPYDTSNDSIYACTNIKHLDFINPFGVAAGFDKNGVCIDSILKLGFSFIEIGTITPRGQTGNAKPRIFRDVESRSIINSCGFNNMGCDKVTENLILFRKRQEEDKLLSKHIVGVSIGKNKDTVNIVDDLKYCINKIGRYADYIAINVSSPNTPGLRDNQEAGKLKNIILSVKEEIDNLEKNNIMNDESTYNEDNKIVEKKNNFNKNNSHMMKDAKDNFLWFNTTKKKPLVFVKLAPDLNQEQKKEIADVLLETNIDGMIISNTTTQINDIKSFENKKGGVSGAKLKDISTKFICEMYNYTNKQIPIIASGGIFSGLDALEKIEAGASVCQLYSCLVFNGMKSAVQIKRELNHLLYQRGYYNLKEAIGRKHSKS

By IC50 is commonly meant the concentration at which inhibition is half-maximal. On to `Cc1ccc(CSCc2ccc(C(=O)NC3CC3)o2)cc1` [MMV007571], for which the half-maximal inhibitory concentration (IC50) in test [1] is ~158 µM. Further, the results for the activity at 2 µM in test [2] and in test [3] were 22% and 26%, respectively.
